Laboratory results reported in patent US8952024B2, “Herbicidal pyrimidone derivatives” (E I du Pont de Nemours and Company, priority 2009, dated 2015).

Columns and labels:
Assay in all cases: Test D pre-/postemergence plant response
Assay type in all cases: in vivo
[1] = tested on: guineagrass (Panicum maximum)
How it was run: (§1)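 Seeds were sown in a loam–sand blend and sprayed preemergence with compound in a non-phytotoxic solvent mixture containing surfactant; plants at 2–18 cm (1- to 4-leaf stage) received the same formulation postemergence. After 14 to 21 days in a greenhouse, injury was rated visually against untreated controls (0 = no effect, 100 = complete control).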

[2] = tested on: mallow (common mallow, Malva sylvestris)
How it was run: as §1

[3] = tested on: dallisgrass (Paspalum dilatatum)
How it was run: as §1

[4] = tested on: signalgrass (broadleaf signalgrass, Brachiaria platyphylla)
How it was run: as §1

[5] = tested on: johnsongrass (Sorghum halepense)
How it was run: as §1

[6] = tested on: itchgrass (Rottboellia cochinchinensis)
How it was run: as §1

[7] = tested on: green foxtail (Setaria viridis)
How it was run: as §1

[8] = tested on: nutsedge (purple nutsedge, Cyperus rotundus)
How it was run: as §1

[9] = tested on: sowthistle (common sowthistle, Sonchus oleraceous)
How it was run: as §1

[10] = tested on: barnyardgrass (Echinochloa crus-galli)
How it was run: as §1

[11] = tested on: purslane (common purslane, Portulaca oleracea)
How it was run: as §1

[12] = tested on: goosegrass (Eleusine indica)
How it was run: as §1

[13] = tested on: ragweed (common ragweed, Ambrosia elatior)
How it was run: as §1

[14] = tested on: Russian thistle (Salsola kali)
How it was run: as §1

[15] = tested on: bluegrass (annual bluegrass, Poa annua)
How it was run: as §1

[16] = tested on: quackgrass (Elytrigia repens)
How it was run: as §1

[17] = Postemergence, 16 g ai/ha, scale 0 to 100
[18] = Postemergence, 31 g ai/ha, scale 0 to 100
[19] = Postemergence, 125 g ai/ha, scale 0 to 100 (0 no effect, 100 complete control)
[20] = Postemergence, 62 g ai/ha, scale 0 to 100 (0 no effect, 100 complete control)
[21] = Preemergence, 16 g ai/ha, scale 0 to 100, 0 no effect, 100 complete control
[22] = Preemergence, 31 g ai/ha, scale 0 to 100 (0 no effect, 100 complete control)
[23] = Preemergence, 62 g ai/ha, scale 0 to 100
[24] = Preemergence, 125 g ai/ha, scale 0 to 100
[25] = Postemergence, 31 g ai/ha, scale 0 to 100 (0 no effect, 100 complete control)

Q: How did the “Plant response rating, Guineagrass” value [1, 17] turn out when O=C1CCCC(O)=C1C(=O)c1cnc(-c2cccnc2)n(-c2ccccc2)c1=O [Compound 113, 5-[(2-hydroxy-6-oxo-1-cyclohexen-1-yl)carbonyl]-3-phenyl-2-(3-pyridinyl)-4(3H)-pyrimidone] was run?
A: 25

Q: And the “Plant response rating, Guineagrass” value [1, 18]?
A: 25

Q: What about the “Plant response rating, Guineagrass” value [1, 19] of the same compound?
A: 70

Q: What about the “Plant response rating, Guineagrass” value [1, 20] of the same compound?
A: 50

Q: And the “Plant response rating, Guineagrass” value [1, 21]?
A: 0

Q: What about the “Plant response rating, Guineagrass” value [1, 22] of the same compound?
A: 65

Q: What about the “Plant response rating, Guineagrass” value [1, 23] of the same compound?
A: 100

Q: And the “Plant response rating, Guineagrass” value [1, 24]?
A: 100

Q: And the “Plant response rating, Mallow” value [2, 17]?
A: 0

Q: What about the “Plant response rating, Mallow” value [2, 18] of the same compound?
A: 0

Q: What about the “Plant response rating, Mallow” value [2, 19] of the same compound?
A: 20

Q: What about the “Plant response rating, Mallow” value [2, 20] of the same compound?
A: 0

Q: And the “Plant response rating, Mallow” value [2, 21]?
A: 0

Q: What about the “Plant response rating, Mallow” value [2, 22] of the same compound?
A: 5

Q: And the “Plant response rating, Mallow” value [2, 23]?
A: 5

Q: And the “Plant response rating, Mallow” value [2, 24]?
A: 90

Q: And the “Plant response rating, Dallisgrass” value [3, 17]?
A: 10

Q: And the “Plant response rating, Dallisgrass” value [3, 18]?
A: 10

Q: And the “Plant response rating, Dallisgrass” value [3, 19]?
A: 70

Q: And the “Plant response rating, Dallisgrass” value [3, 20]?
A: 60

Q: What about the “Plant response rating, Dallisgrass” value [3, 21] of the same compound?
A: 5

Q: What about the “Plant response rating, Dallisgrass” value [3, 22] of the same compound?
A: 50

Q: What about the “Plant response rating, Dallisgrass” value [3, 23] of the same compound?
A: 50

Q: What about the “Plant response rating, Dallisgrass” value [3, 24] of the same compound?
A: 100

Q: And the “Plant response rating, Signalgrass” value [4, 17]?
A: 5

Q: And the “Plant response rating, Signalgrass” value [4, 18]?
A: 40

Q: What about the “Plant response rating, Signalgrass” value [4, 19] of the same compound?
A: 75

Q: And the “Plant response rating, Signalgrass” value [4, 20]?
A: 60

Q: What about the “Plant response rating, Signalgrass” value [4, 21] of the same compound?
A: 0

Q: What about the “Plant response rating, Signalgrass” value [4, 22] of the same compound?
A: 0

Q: What about the “Plant response rating, Signalgrass” value [4, 24] of the same compound?
A: 90

Q: And the “Plant response rating, Johnsongrass” value [5, 17]?
A: 40

Q: What about the “Plant response rating, Johnsongrass” value [5, 18] of the same compound?
A: 40

Q: And the “Plant response rating, Johnsongrass” value [5, 19]?
A: 75

Q: And the “Plant response rating, Johnsongrass” value [5, 20]?
A: 65

Q: What about the “Plant response rating, Johnsongrass” value [5, 21] of the same compound?
A: 0

Q: And the “Plant response rating, Johnsongrass” value [5, 22]?
A: 0

Q: What about the “Plant response rating, Johnsongrass” value [5, 23] of the same compound?
A: 10

Q: And the “Plant response rating, Johnsongrass” value [5, 24]?
A: 10

Q: And the “Plant response rating, Itchgrass” value [6, 17]?
A: 0

Q: What about the “Plant response rating, Itchgrass” value [6, 18] of the same compound?
A: 10

Q: And the “Plant response rating, Itchgrass” value [6, 19]?
A: 70

Q: And the “Plant response rating, Itchgrass” value [6, 20]?
A: 65

Q: What about the “Plant response rating, Itchgrass” value [6, 21] of the same compound?
A: 0

Q: What about the “Plant response rating, Itchgrass” value [6, 22] of the same compound?
A: 0

Q: What about the “Plant response rating, Itchgrass” value [6, 23] of the same compound?
A: 0

Q: And the “Plant response rating, Itchgrass” value [6, 24]?
A: 0

Q: And the “Plant response rating, Foxtail, Green” value [7, 17]?
A: 25

Q: And the “Plant response rating, Foxtail, Green” value [7, 18]?
A: 60

Q: What about the “Plant response rating, Foxtail, Green” value [7, 19] of the same compound?
A: 90

Q: And the “Plant response rating, Foxtail, Green” value [7, 20]?
A: 70

Q: What about the “Plant response rating, Foxtail, Green” value [7, 21] of the same compound?
A: 0

Q: What about the “Plant response rating, Foxtail, Green” value [7, 22] of the same compound?
A: 0

Q: What about the “Plant response rating, Foxtail, Green” value [7, 23] of the same compound?
A: 0

Q: What about the “Plant response rating, Foxtail, Green” value [7, 24] of the same compound?
A: 20

Q: And the “Plant response rating, Nutsedge, Purple” value [8, 17]?
A: 0

Q: What about the “Plant response rating, Nutsedge, Purple” value [8, 18] of the same compound?
A: 10

Q: What about the “Plant response rating, Nutsedge, Purple” value [8, 19] of the same compound?
A: 50

Q: What about the “Plant response rating, Nutsedge, Purple” value [8, 20] of the same compound?
A: 35

Q: And the “Plant response rating, Nutsedge, Purple” value [8, 21]?
A: 0

Q: And the “Plant response rating, Nutsedge, Purple” value [8, 22]?
A: 10

Q: What about the “Plant response rating, Nutsedge, Purple” value [8, 23] of the same compound?
A: 20

Q: And the “Plant response rating, Nutsedge, Purple” value [8, 24]?
A: 80

Q: And the “Plant response rating, Sowthistle” value [9, 17]?
A: 90

Q: And the “Plant response rating, Sowthistle” value [9, 18]?
A: 95

Q: What about the “Plant response rating, Sowthistle” value [9, 19] of the same compound?
A: 100

Q: And the “Plant response rating, Sowthistle” value [9, 20]?
A: 100

Q: What about the “Plant response rating, Sowthistle” value [9, 21] of the same compound?
A: 50

Q: What about the “Plant response rating, Sowthistle” value [9, 22] of the same compound?
A: 75

Q: What about the “Plant response rating, Sowthistle” value [9, 24] of the same compound?
A: 100

Q: What about the “Plant response rating, Barnyardgrass” value [10, 17] of the same compound?
A: 65

Q: And the “Plant response rating, Barnyardgrass” value [10, 25]?
A: 75

Q: And the “Plant response rating, Barnyardgrass” value [10, 19]?
A: 80

Q: What about the “Plant response rating, Barnyardgrass” value [10, 20] of the same compound?
A: 80

Q: What about the “Plant response rating, Barnyardgrass” value [10, 21] of the same compound?
A: 0

Q: What about the “Plant response rating, Barnyardgrass” value [10, 22] of the same compound?
A: 0

Q: What about the “Plant response rating, Barnyardgrass” value [10, 23] of the same compound?
A: 0

Q: And the “Plant response rating, Barnyardgrass” value [10, 24]?
A: 35

Q: And the “Plant response rating, Purslane” value [11, 17]?
A: 30

Q: What about the “Plant response rating, Purslane” value [11, 18] of the same compound?
A: 30

Q: And the “Plant response rating, Purslane” value [11, 19]?
A: 75

Q: What about the “Plant response rating, Purslane” value [11, 20] of the same compound?
A: 50

Q: And the “Plant response rating, Purslane” value [11, 21]?
A: 90

Q: And the “Plant response rating, Purslane” value [11, 22]?
A: 100

Q: And the “Plant response rating, Purslane” value [11, 23]?
A: 100

Q: And the “Plant response rating, Purslane” value [11, 24]?
A: 100

Q: What about the “Plant response rating, Goosegrass” value [12, 17] of the same compound?
A: 40

Q: What about the “Plant response rating, Goosegrass” value [12, 18] of the same compound?
A: 50

Q: And the “Plant response rating, Goosegrass” value [12, 19]?
A: 65

Q: And the “Plant response rating, Goosegrass” value [12, 20]?
A: 65

Q: What about the “Plant response rating, Goosegrass” value [12, 21] of the same compound?
A: 25

Q: What about the “Plant response rating, Goosegrass” value [12, 22] of the same compound?
A: 25

Q: What about the “Plant response rating, Goosegrass” value [12, 23] of the same compound?
A: 75

Q: What about the “Plant response rating, Goosegrass” value [12, 24] of the same compound?
A: 95

Q: What about the “Plant response rating, Ragweed” value [13, 17] of the same compound?
A: 70

Q: What about the “Plant response rating, Ragweed” value [13, 18] of the same compound?
A: 70

Q: What about the “Plant response rating, Ragweed” value [13, 19] of the same compound?
A: 80

Q: What about the “Plant response rating, Ragweed” value [13, 20] of the same compound?
A: 75

Q: What about the “Plant response rating, Ragweed” value [13, 21] of the same compound?
A: 0

Q: And the “Plant response rating, Ragweed” value [13, 22]?
A: 50

Q: What about the “Plant response rating, Ragweed” value [13, 24] of the same compound?
A: 98

Q: And the “Plant response rating, Russian Thistle” value [14, 17]?
A: 0

Q: What about the “Plant response rating, Russian Thistle” value [14, 18] of the same compound?
A: 0

Q: And the “Plant response rating, Russian Thistle” value [14, 19]?
A: 20

Q: And the “Plant response rating, Russian Thistle” value [14, 20]?
A: 20

Q: What about the “Plant response rating, Russian Thistle” value [14, 21] of the same compound?
A: 0

Q: And the “Plant response rating, Russian Thistle” value [14, 22]?
A: 65

Q: And the “Plant response rating, Russian Thistle” value [14, 24]?
A: 100

Q: What about the “Plant response rating, Bluegrass” value [15, 17] of the same compound?
A: 0

Q: What about the “Plant response rating, Bluegrass” value [15, 25] of the same compound?
A: 0

Q: What about the “Plant response rating, Bluegrass” value [15, 19] of the same compound?
A: 0

Q: What about the “Plant response rating, Bluegrass” value [15, 20] of the same compound?
A: 0

Q: And the “Plant response rating, Bluegrass” value [15, 21]?
A: 0

Q: And the “Plant response rating, Bluegrass” value [15, 22]?
A: 0

Q: What about the “Plant response rating, Bluegrass” value [15, 23] of the same compound?
A: 0

Q: What about the “Plant response rating, Bluegrass” value [15, 24] of the same compound?
A: 0

Q: And the “Plant response rating, Quackgrass” value [16, 17]?
A: 0

Q: What about the “Plant response rating, Quackgrass” value [16, 18] of the same compound?
A: 0

Q: And the “Plant response rating, Quackgrass” value [16, 19]?
A: 30

Q: And the “Plant response rating, Quackgrass” value [16, 20]?
A: 20

Q: What about the “Plant response rating, Quackgrass” value [16, 21] of the same compound?
A: 0

Q: And the “Plant response rating, Quackgrass” value [16, 22]?
A: 0

Q: And the “Plant response rating, Quackgrass” value [16, 24]?
A: 0
